From US10183021B2, “sGC stimulators” (Ironwood Pharmaceuticals, Inc., priority 2013, dated 2019)

Biological target: soluble guanylate cyclase (sGC) (Homo sapiens (Human), UniProt Q02108+Q02153)
Experiment: sGC-HEK-cGMP assay with SNP incubation, LC/MS detection (Example 2A)
Assay type: cell-based
Details: HEK293 cells, 10 μM SNP, LC/MS detection; for Emax: 100% = BAY 41-2272 at 10 μM, read-out: HEK assay Emax - unconstrained (%); for EC50: top of curve not fitted to 100%, read-out: HEK assay EC50 - unconstrained
Description: Human embryonic kidney cells (HEK293), endogenously expressing soluble guanylate cyclase (sGC), were used to evaluate the activity of test compounds. Compounds stimulating the sGC receptor should cause an increase in the intracellular concentration of cGMP. HEK 293 cells were seeded in Dulbecco's Modification of Eagle's Medium supplemented with fetal bovine serum (10% final) and L-glutamine (2 mM final) in a 200 L volume at a density of 1×10^5 cells/well in a poly-D-lysine coated 96 well flat bottom plate and grown overnight at 37° C. Medium was aspirated and cells were washed with 1× Hank's Buffered Saline Salt Solution (200 μL). Cells were then incubated for 15 minutes at 37° C. with 200 μL of a 0.5 mM 3-isobutyl-1-methylxanthine (IBMX) solution. Test article and sodium nitroprusside solutions (x μM concentration for test article solution and 10 μM concentration for SNP solution; wherein x is one of the following concentrations: 30 μM, 10 μM, 3 μM, 1 μM, 0.3 μM, 0.1 μM, 0.03 μM, 0.01 μM, 0.003 μM, 0.001 μM, 0.0003 μM or 0.0001 μM) were then added to the assay mixture (2 μL each) and the resulting mixture incubated at 37° C. for 10 minutes. After the 10 minute incubation, the assay mixture was aspirated and 0.1M HCl (200 μL) was added to the cells. The plate was incubated at 4° C. for 30 minutes in the 0.1M HCl to stop the reaction and lyse the cells. The plates were then centrifuged at 1,200 g for 5 minutes at room temperature. Supernatants were collected and transferred to a new flat bottom 96 well plate for analysis by HPLC-MS. Vehicle controls were carried out using DMSO (1%) solutions. A known sGC stimulator, BAY 41-2272, was used as the positive control. Samples were diluted with an equal volume of 1 M Ammonium Acetate (pH 7) to neutralize samples for better chromatography. A 2× cGMP standard solution was prepared in 0.1 M HCl and then diluted with an equal volume of 1 M Ammonium Acetate, with the following final concentrations in nM: 1024, 512, 256, 128, 64, 32, 16, 8, 4, 2, 1. cGMP concentrations in the test plates were determined from each sample using the LC/MS conditions shown in Table 2 below and the calculated cGMP standard curve. EC50 values were calculated from concentration-response curves generated with GraphPad Prism Software. Data were normalized to a high control using the following equation: 100*(Sample−Low Control)/(High Control−Low Control), where the low control is the average of 6 samples treated with 1% DMSO, and the high control is the average of 8-12 samples treated with 10 uM BAY 41-2272. Data were fit using a non-linear regression, sigmoidal dose response, 3 parameter fits.

Sequence of soluble guanylate cyclase (sGC) (Q02153 whole entry): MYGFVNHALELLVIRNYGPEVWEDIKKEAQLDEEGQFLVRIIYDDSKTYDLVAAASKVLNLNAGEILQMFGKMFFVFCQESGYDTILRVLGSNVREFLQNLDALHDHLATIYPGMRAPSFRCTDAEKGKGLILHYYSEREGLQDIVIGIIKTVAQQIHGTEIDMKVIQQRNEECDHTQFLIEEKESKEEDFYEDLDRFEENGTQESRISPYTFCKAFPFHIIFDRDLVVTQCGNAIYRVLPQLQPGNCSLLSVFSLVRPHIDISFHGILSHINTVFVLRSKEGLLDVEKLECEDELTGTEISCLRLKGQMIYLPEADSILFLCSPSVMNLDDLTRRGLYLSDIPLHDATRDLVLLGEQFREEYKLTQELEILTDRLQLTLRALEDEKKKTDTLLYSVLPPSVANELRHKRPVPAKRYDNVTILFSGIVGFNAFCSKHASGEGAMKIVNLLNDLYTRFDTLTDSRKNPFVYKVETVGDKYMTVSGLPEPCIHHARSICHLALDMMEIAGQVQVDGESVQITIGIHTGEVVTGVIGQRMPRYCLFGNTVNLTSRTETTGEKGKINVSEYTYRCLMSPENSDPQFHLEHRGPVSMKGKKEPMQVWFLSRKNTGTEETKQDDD
Sequence of soluble guanylate cyclase (sGC) (Q02108 whole entry): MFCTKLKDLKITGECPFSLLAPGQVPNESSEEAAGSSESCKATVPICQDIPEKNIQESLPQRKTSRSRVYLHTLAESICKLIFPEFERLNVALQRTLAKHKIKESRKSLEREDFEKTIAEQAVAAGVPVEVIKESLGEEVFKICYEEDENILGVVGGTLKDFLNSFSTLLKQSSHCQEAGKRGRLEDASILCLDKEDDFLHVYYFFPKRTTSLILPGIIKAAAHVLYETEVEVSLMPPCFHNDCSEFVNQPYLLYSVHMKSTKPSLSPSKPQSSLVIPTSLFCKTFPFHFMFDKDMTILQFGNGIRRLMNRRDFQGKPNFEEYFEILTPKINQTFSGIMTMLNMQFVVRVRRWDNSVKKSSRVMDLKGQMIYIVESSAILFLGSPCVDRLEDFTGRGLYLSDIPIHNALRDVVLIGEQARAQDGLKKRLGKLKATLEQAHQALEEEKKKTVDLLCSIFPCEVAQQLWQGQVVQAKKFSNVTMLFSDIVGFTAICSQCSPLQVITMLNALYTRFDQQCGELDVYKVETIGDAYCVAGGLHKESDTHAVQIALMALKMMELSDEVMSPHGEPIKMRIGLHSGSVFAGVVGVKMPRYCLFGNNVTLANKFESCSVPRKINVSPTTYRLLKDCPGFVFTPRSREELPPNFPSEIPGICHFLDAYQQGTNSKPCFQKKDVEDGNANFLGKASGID

| SMILES | Emax [%] | EC50 [nM] |
| --- | --- | --- |
| CN(C)CCNc1nc(-c2cc(-c3ccon3)n(Cc3ccccc3F)n2)ncc1F [Compound I-7] | 40 to 60 | 1000 to 5000 |
| CC(C)(C)OC(=O)N1CCC(Nc2nc(-c3cc(-c4ccon4)n(Cc4ccccc4F)n3)ncc2F)CC1 [Compound I-12] | 100 to 120 | 1000 to 5000 |
| OC1CCCN(c2nc(-c3cc(-c4ccon4)n(Cc4ccccc4F)n3)ncc2F)C1 (stereo not shown) [Compound I-18] | 60 to 80 |  |
| CC(C)(C)OC(=O)NC1CCCN(c2nc(-c3cc(-c4ccon4)n(Cc4ccccc4F)n3)ncc2F)C1 (stereo not shown) [Compound I-25] | 40 to 60 | 500 to 1000 |
| CC(C)(C)OC(=O)N1CCCC(Nc2nc(-c3cc(-c4ccon4)n(Cc4ccccc4F)n3)ncc2F)C1 (stereo not shown) [Compound I-27] | 60 to 80 | 500 to 1000 |
| Fc1ccccc1Cn1nc(-c2ncc(Cl)c(N3CCOCC3)n2)cc1-c1ccon1 [Compound I-28] | 60 to 80 | 1000 to 5000 |
| O=C(CNc1nc(-c2cc(-c3ccon3)n(Cc3ccccc3F)n2)ncc1F)N1CCOCC1 [Compound I-31] | 60 to 80 | 500 to 1000 |
| COC(=O)C1CCCN1c1nc(-c2cc(-c3ccon3)n(Cc3ccccc3F)n2)ncc1F (stereo not shown) [Compound I-34] | 40 to 60 | 500 to 1000 |
| NC1CCCN(c2nc(-c3cc(-c4ccon4)n(Cc4ccccc4F)n3)ncc2F)C1 (stereo not shown) [Compound I-37] | 60 to 80 | 1000 to 5000 |
| Fc1ccccc1Cn1nc(-c2ncc(F)c(NC3CNC3)n2)cc1-c1ccon1 [Compound I-38] | 60 to 80 | 5000 to 10000 |
| NC1CN(c2nc(-c3cc(-c4ccon4)n(Cc4ccccc4F)n3)ncc2F)C1 [Compound I-40, 1-(5-fluoro-2-(1-(2-fluorobenzyl)-5-(isoxazol-3-yl)-1H-pyrazol-3-yl)pyrimidin-4-yl)azetidin-3-amine] | 60 to 80 | 1000 to 5000 |
| O=C(O)C1CCCN1c1nc(-c2cc(-c3ccon3)n(Cc3ccccc3F)n2)ncc1F (stereo not shown) [Compound I-41] | 60 to 80 |  |
| CC(C)(C)OC(=O)N1CCC2(CCN(c3nc(-c4cc(-c5ccon5)n(Cc5ccccc5F)n4)ncc3F)C2)C1 (stereo not shown) [Compound I-45] | 40 to 60 | 1000 to 5000 |
| NC1CCN(c2nc(-c3cc(-c4ccon4)n(Cc4ccccc4F)n3)ncc2F)C1 (stereo not shown) [Compound I-46] | 60 to 80 | 1000 to 5000 |
| COC(=O)C1CCCCN1c1nc(-c2cc(-c3ccon3)n(Cc3ccccc3F)n2)ncc1F (stereo not shown) [Compound I-48] | 60 to 80 | 1000 to 5000 |
| COC(=O)N(C(=O)OC)c1nc(-c2cc(-c3ccon3)n(Cc3ccccc3F)n2)ncc1F [Compound I-52] | 60 to 80 | 1000 to 5000 |
| CCN(CC)c1nc(-c2cc(-c3ccon3)n(Cc3ccccc3F)n2)ncc1F [Compound I-60] | 100 to 120 | 500 to 1000 |
| Fc1ccccc1Cn1nc(-c2ncc(F)c(N3CC(F)(F)C3)n2)cc1-c1ccon1 [Compound I-61] | 80 to 100 | 500 to 1000 |
| CC(C)(C)Nc1nc(-c2cc(-c3ccon3)n(Cc3ccccc3F)n2)ncc1F [Compound I-65] | 60 to 80 | 500 to 1000 |
| NC(=O)C1CCCN(c2nc(-c3cc(-c4ccon4)n(Cc4ccccc4F)n3)ncc2F)C1 (stereo not shown) [Compound I-66] | 60 to 80 | 100 to 500 |
| O=C(O)[C@H](CO)Nc1nc(-c2cc(-c3ccon3)n(Cc3ccccc3F)n2)ncc1F [Compound I-68] | 60 to 80 | 5000 to 10000 |
| CCNC(=O)NC1CCCN(c2nc(-c3cc(-c4ccon4)n(Cc4ccccc4F)n3)ncc2F)C1 (stereo not shown) [Compound I-70] | 80 to 100 | 100 to 500 |
| CCNC(=O)NC1CN(c2nc(-c3cc(-c4ccon4)n(Cc4ccccc4F)n3)ncc2F)C1 [Compound I-71] | 60 to 80 | 100 to 500 |
| O=S1(=O)CCN(C2CN(c3nc(-c4cc(-c5ccon5)n(Cc5ccccc5F)n4)ncc3F)C2)CC1 [Compound I-72] | 60 to 80 | 100 to 500 |
| COc1cnc(-c2cc(-c3ccon3)n(Cc3ccccc3F)n2)nc1N1CCOCC1 [Compound I-73] | 40 to 60 | 5000 to 10000 |
| Fc1ccccc1Cn1nc(-c2ncc(F)c(-n3cccn3)n2)cc1-c1ccon1 [Compound I-74] | 40 to 60 | 1000 to 5000 |
| O=C(O)C1CCCCCN1c1nc(-c2cc(-c3ccon3)n(Cc3ccccc3F)n2)ncc1F (stereo not shown) [Compound I-75] | 60 to 80 | 100 to 500 |
| O=C(O)C1CCN(c2nc(-c3cc(-c4ccon4)n(Cc4ccccc4F)n3)ncc2F)C1 (stereo not shown) [Compound I-76] | 60 to 80 | 500 to 1000 |

Results, then the molecule that gave them:

| Emax [%] | EC50 [nM] | SMILES |
| --- | --- | --- |
| 60 to 80 | 100 to 500 | CN(C)c1nc(-c2cc(-c3ccon3)n(Cc3ccccc3F)n2)ncc1F [Compound I-8] |
| 80 to 100 | 100 to 500 | Fc1ccccc1Cn1nc(-c2ncc(F)c(NC3CCCCC3)n2)cc1-c1ccon1 [Compound I-9] |
| 60 to 80 | 100 to 500 | OC[C@@H]1CCCN1c1nc(-c2cc(-c3ccon3)n(Cc3ccccc3F)n2)ncc1F [Compound I-13] |
| 60 to 80 | 100 to 500 | COC1CCN(c2nc(-c3cc(-c4ccon4)n(Cc4ccccc4F)n3)ncc2F)C1 (stereo not shown) [Compound I-17] |
| 60 to 80 | 100 to 500 | OC1CCN(c2nc(-c3cc(-c4ccon4)n(Cc4ccccc4F)n3)ncc2F)C1 (stereo not shown) [Compound I-20] |
| 40 to 60 | 100 to 500 | CC(C)(C)OC(=O)NC1CN(c2nc(-c3cc(-c4ccon4)n(Cc4ccccc4F)n3)ncc2F)C1 [Compound I-21, tert-butyl (1-(5-fluoro-2-(1-(2-fluorobenzyl)-5-(isoxazol-3-yl)-1H-pyrazol-3-yl)pyrimidin-4-yl)azetidin-3-yl)carbamate] |
| 60 to 80 | 100 to 500 | COC1CCN(c2nc(-c3cc(-c4ccon4)n(Cc4ccccc4F)n3)ncc2F)CC1 [Compound I-22] |
| 60 to 80 | 100 to 500 | CC(C)(C)OC(=O)N1CC(Nc2nc(-c3cc(-c4ccon4)n(Cc4ccccc4F)n3)ncc2F)C1 [Compound I-26] |
| 80 to 100 | 100 to 500 | O=C1CC2(CCN(c3nc(-c4cc(-c5ccon5)n(Cc5ccccc5F)n4)ncc3F)CC2)CN1 [Compound I-30] |
| 60 to 80 | 100 to 500 | Fc1ccccc1Cn1nc(-c2ncc(F)c(N3CC4(COC4)C3)n2)cc1-c1ccon1 [Compound I-32] |
| 60 to 80 | 100 to 500 | CC1COCCN1c1nc(-c2cc(-c3ccon3)n(Cc3ccccc3F)n2)ncc1F (stereo not shown) [Compound I-33] |
| 80 to 100 | 100 to 500 | Fc1ccccc1Cn1nc(-c2ncc(F)c(N3CCC4(CC3)COC4)n2)cc1-c1ccon1 [Compound I-42] |
| 60 to 80 | 1 to 100 | Fc1ccccc1Cn1nc(-c2ncc(F)c(N3CCC4(CCOCC4)C3)n2)cc1-c1ccon1 [Compound I-43] |
| 40 to 60 | 100 to 500 | Fc1ccccc1Cn1nc(-c2ncc(F)c(N3CCCC4(COC4)C3)n2)cc1-c1ccon1 [Compound I-47] |
| 80 to 100 | 100 to 500 | Fc1ccccc1Cn1nc(-c2ncc(F)c(N3CCCC(F)C3)n2)cc1-c1ccon1 (stereo not shown) [Compound I-56] |
| 60 to 80 | 100 to 500 | Fc1ccccc1Cn1nc(-c2ncc(F)c(N3CCC(F)(F)C3)n2)cc1-c1ccon1 [Compound I-63] |
| 80 to 100 | 1 to 100 | CC1(Nc2nc(-c3cc(-c4ccon4)n(Cc4ccccc4F)n3)ncc2F)CCOCC1 [Compound I-64] |
